Data: publication doi:10.1101/2025.03.31.646301v1, “Discovery of Tankyrase scaffolding inhibitor specifically targeting the ARC4 peptide binding domain” (biorxiv, 2025)

target: T1, TNKS2 ARC4 (Homo sapiens, UniProt Q9H2K2); experiment: FRET displacement of YFP-REAGDGEE peptide from CFP-ARC; format: binding; conditions: not given
T1 construct: ankyrin repeat cluster 4 domain; FRET: 6xHis-mCerulean (CFP) fusion; DSF, NMR, crystal: MBP and His tag cleaved by TEV, residues 487-649 printed for crystal; E. coli BL21(DE3)
T1 sequence (Q9H2K2 487-649): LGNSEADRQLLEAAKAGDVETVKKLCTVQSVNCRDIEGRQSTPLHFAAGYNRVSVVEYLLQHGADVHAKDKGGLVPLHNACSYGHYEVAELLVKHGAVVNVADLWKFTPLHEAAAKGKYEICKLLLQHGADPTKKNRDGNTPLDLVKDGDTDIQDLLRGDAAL

SMILES	IC50
CCN(CC)CCN1C(=O)C(O)=C(C(=O)c2ccc3c(c2)OCCO3)C1c1cccc(O)c1 (stereo not drawn) [compound 14, 14]	139 µM
O=C(C1=C(O)C(=O)N(CCc2ccccc2)C1c1ccc(O)cc1)c1ccc2c(c1)OCCO2 (stereo not drawn) [compound 25, 25]	56 µM
CCN(CC)CCCN1C(=O)C(O)=C(C(=O)c2ccc(OC)c(OC)c2)C1c1ccc(O)cc1 (stereo not drawn) [S7]	> 1000 µM
CCCCOc1ccc(C2C(C(=O)c3ccc4c(c3)OCCO4)=C(O)C(=O)N2CCCN(C)C)cc1 (stereo not drawn) [compound 8, 8]	69 µM
CCN(CC)CCCN1C(=O)C(O)=C(C(=O)c2ccc3c(c2)OCCO3)C1c1ccc(F)cc1 (stereo not drawn) [compound 2, 2]	32 µM
O=C(C1=C(O)C(=O)N(Cc2ccncc2)C1c1ccccc1)c1ccc2c(c1)OCCO2 (stereo not drawn) [compound 22, 22]	325 µM
O=C(C1=C(O)C(=O)N(CCCN2CCOCC2)C1c1cccc(O)c1)c1ccc2c(c1)OCCO2 (stereo not drawn) [compound 18, 18]	85 µM
CCOc1ccc(C2C(C(=O)c3ccc4c(c3)OCCO4)=C(O)C(=O)N2CCCN2CCOCC2)cc1 (stereo not drawn) [compound 7, 7]	117 µM
CCN(CC)CCCN1C(=O)C(O)=C(C(=O)c2ccc3c(c2)OCCO3)C1c1ccc(C)cc1 (stereo not drawn) [compound 20, 20]	78 µM
COc1cccc(C2C(C(=O)c3ccc4c(c3)OCCO4)=C(O)C(=O)N2CCCN2CCNCC2)c1 (stereo not drawn) [S1]	250 µM
CN(C)CCCN1C(=O)C(O)=C(C(=O)c2ccc3c(c2)OCCO3)C1c1cccc(O)c1 (stereo not drawn) [compound 16, 16]	31 µM
CCCCOc1ccc(C2C(C(=O)c3ccc4c(c3)OCCO4)=C(O)C(=O)N2CCCN2CCOCC2)cc1 (stereo not drawn) [compound 9, 9]	81 µM
O=C(C1=C(O)C(=O)N(Cc2ccccc2)C1c1ccc(O)cc1)c1ccc2c(c1)OCCO2 (stereo not drawn) [compound 26, 26]	30 µM
COCCCN1C(=O)C(O)=C(C(=O)c2ccc3c(c2)OCCO3)C1c1cccc(O)c1 (stereo not drawn) [compound 15, 15]	368 µM
CCN(CC)CCCN1C(=O)C(O)=C(C(=O)c2ccc3c(c2)OCCO3)C1c1ccccc1 (stereo not drawn) [compound 21, 21]	36 µM
CCN(CC)CCCN1C(=O)C(O)=C(C(=O)c2ccc3c(c2)OCCO3)C1c1cccc(OC)c1 (stereo not drawn) [compound 12, 12]	11 µM
CCN(CC)CCCN1C(=O)C(O)=C(C(=O)c2ccc3c(c2)OCCO3)C1c1ccc(N(C)C)cc1 (stereo not drawn) [compound 19, 19]	10 µM
Cc1ccc(C2C(C(=O)c3ccc4c(c3)OCCO4)=C(O)C(=O)N2CCCN(C)C)cc1 (stereo not drawn) [compound 3, 3]	51 µM
CCN(CC)CCCN1C(=O)C(O)=C(C(=O)c2ccc3c(c2)OCCO3)C1c1cccc(O)c1 (stereo not drawn) [compound 13, 13]	24 µM
CCN(CC)CCCN1C(=O)C(O)=C(C(=O)c2ccc(OCc3ccc(C)cc3)cc2)C1c1ccc(O)cc1 (stereo not drawn) [compound 11, 11]	552 µM
CCN(CC)CCCN1C(=O)C(O)=C(C(=O)c2ccc3c(c2)CC(C)O3)C1c1ccc(O)cc1 (stereo not drawn) [compound 10, 10]	31 µM
CN(C)CCCN1C(=O)C(O)=C(C(=O)c2ccc3c(c2)OCCO3)C1c1ccc(Br)cc1 (stereo not drawn) [compound 5, 5]	70 µM
CCN(CC)CCCN1C(=O)C(O)=C(C(=O)c2ccc3c(c2)OCCO3)C1c1ccncc1 (stereo not drawn) [compound 24, 24]	56 µM
CCN(CC)CCCCN1C(=O)C(O)=C(C(=O)c2ccc3c(c2)OCCO3)C1c1ccc(O)cc1 (stereo not drawn) [S12]	74 µM
CCN(CC)CCCN1C(=O)C(O)=C(C(=O)c2ccc3ccccc3c2)C1c1ccc(O)cc1 (stereo not drawn) [S6]	> 1000 µM
CCN(CC)CCCN1C(=O)C(O)=C(C(=O)c2ccc3c(c2)OCCO3)C1c1ccc(N)cc1 (stereo not drawn) [S9]	17 µM
CN(C)CCN1C(=O)C(O)=C(C(=O)c2ccc3c(c2)OCCO3)C1c1cccc(O)c1 (stereo not drawn) [compound 17, 17]	274 µM
COc1cccc(C2C(C(=O)c3ccc4c(c3)OCCO4)=C(O)C(=O)N2CCCNC(=N)N)c1 (stereo not drawn) [S4]	142 µM

same assay, conditions: pH 7, 100 nM CFP-ARC, 200 nM YFP-peptide; TBM pocket

SMILES	IC50
O=C(C1=C(O)C(=O)N(CCN2CCOCC2)C1c1ccccc1)c1ccc2c(c1)OCCO2 (stereo not drawn) [compound 23, 23]	411 µM

target: T1, TNKS2 ARC4; experiment: not given; design: DSF thermal shift of TNKS2 ARC4, stabilization over DMSO control; conditions: binder
Description: Given the notable stabilization of the pyrrolone-based compounds from the Commercials Diversity collection, we decided to focus on their common scaffold for compound optimization. Pyrrolone is indeed a versatile moiety that is largely employed for the design of compounds with a variety of biological effects.[55] The nine primary hits were acquired from commercial suppliers, they underwent quality control, additional DSF validation and determination of potency through FRET-based IC50 measurements (Table 1). All the tested compounds include a benzodioxane moiety (R[1]), a [compound left out] group with substitutions in the para position (R[2]), and an R[3] group with an aliphatic character and a tertiary amine. […] In addition, all molecules, except for 7, have IC50 values below 100 µM. Among the nine molecules, 1 performed the best in terms of stabilization of TNKS2 ARC4 and potency. […] In the same position, the presence of a hydrophobic methyl group (3, 4), other halogen substituents (5) and alkoxy groups (6–9) is also tolerated, even if not optimal. […] A SAR investigation was conducted with purchased and synthesized analogues of 1 through FRET-based potency measurements and DSF assay with TNKS2 ARC4 (Table 2, Table S2). All the compounds commercially acquired underwent quality control. […] Changes to the length of the aliphatic chain at R[3] greatly impacts both potency and protein stabilization. […] The diethylamino-based substituent at R[3] […] Compounds 25 and 26 further indicate that the presence of tertiary amine at R[3] is not necessary to achieve binding. […] 5 Figure S2. DSF assay results for validation of primary hits identified in the EU-OPENSCREEN Commercials Diversity Library. (A) and (B) show DSF assay validation measurements of TNKS2 ARC4 with primary hits from the Commercial Diversity Library. Compounds are tested at 100 μM. They are named after their EU-OPENSCREEN identity codes and the identities are available for consultation on ECBD. 1,2 (A) and (B) show results from two independent experiments. For each experiment, each compound was tested with a single measurement, while controls (TNKS2 ARC4 with 100 μM optimized peptide, TNKS2 ARC4 with 100 μM DMSO) are studied in at least four replicates and errors are shown. Moreover, stabilization over the control (TNKS2 ARC4 with DMSO) is indicated (ΔTm °C). […] It was not possible to measure the melting curve of TNKS2 ARC4 in presence of EOS21552, EOS54043, EOS54043.

SMILES	ΔTm ± SD (°C)
CCN(CC)CCCN1C(=O)C(O)=C(C(=O)c2ccc3c(c2)OCCO3)C1c1ccc(C)cc1 (stereo not drawn) [compound 20]	3.43 ± 0.66 °C
CCN(CC)CCN1C(=O)C(O)=C(C(=O)c2ccc3c(c2)OCCO3)C1c1cccc(O)c1 (stereo not drawn) [compound 14, 14]	1.40 ± 0.36 °C
CCN(CC)CCCN1C(=O)C(O)=C(C(=O)c2ccc(OC)c(OC)c2)C1c1ccc(O)cc1 (stereo not drawn) [S7]	0.04 ± 0.03 °C
O=C(C1=C(O)C(=O)N(CCN2CCOCC2)C1c1ccccc1)c1ccc2c(c1)OCCO2 (stereo not drawn) [compound 23]	0.89 ± 0.33 °C
O=C(C1=C(O)C(=O)N(Cc2ccccc2)C1c1ccc(O)cc1)c1ccc2c(c1)OCCO2 (stereo not drawn) [compound 26]	0.76 ± 0.33 °C
O=C(C1=C(O)C(=O)N(Cc2ccncc2)C1c1ccccc1)c1ccc2c(c1)OCCO2 (stereo not drawn) [compound 22]	0.48 ± 0.27 °C
CCCCOc1ccc(C2C(C(=O)c3ccc4c(c3)OCCO4)=C(O)C(=O)N2CCCN(C)C)cc1 (stereo not drawn) [compound 8, 8]	1.65 ± 0.24 °C
CCN(CC)CCCN1C(=O)C(O)=C(C(=O)c2ccc3c(c2)OCCO3)C1c1ccccc1 (stereo not drawn) [compound 21]	4.73 ± 0.29 °C
CCN(CC)CCCN1C(=O)C(O)=C(C(=O)c2ccc3c(c2)OCCO3)C1c1ccc(F)cc1 (stereo not drawn) [compound 2, 2]	2.38 ± 0.52 °C
CN(C)CCN1C(=O)C(O)=C(C(=O)c2ccc3c(c2)OCCO3)C1c1cccc(O)c1 (stereo not drawn) [compound 17]	0.98 ± 0.32 °C
CCN(CC)CCCN1C(=O)C(O)=C(C(=O)c2ccc3c(c2)OCCO3)C1c1ccc(N(C)C)cc1 (stereo not drawn) [compound 19]	4.14 ± 0.12 °C
CCN(CC)CCCN1C(=O)C(O)=C(C(=O)c2ccc(OC)c(OC)c2)C1c1ccccc1 (stereo not drawn) [S10]	-0.28 ± 0.35 °C
CCOc1ccc(C2C(C(=O)c3ccc4c(c3)OCCO4)=C(O)C(=O)N2CCCN2CCOCC2)cc1 (stereo not drawn) [compound 7, 7]	1.42 ± 0.16 °C
COc1cccc(C2C(C(=O)c3ccc4c(c3)OCCO4)=C(O)C(=O)N2CCCN2CCNCC2)c1 (stereo not drawn) [S1]	0.69 ± 0.30 °C
CCCCOc1ccc(C2C(C(=O)c3ccc4c(c3)OCCO4)=C(O)C(=O)N2CCCN2CCOCC2)cc1 (stereo not drawn) [compound 9, 9]	1.40 ± 0.18 °C
COCCCN1C(=O)C(O)=C(C(=O)c2ccc3c(c2)OCCO3)C1c1cccc(O)c1 (stereo not drawn) [compound 15, 15]	0.78 ± 0.43 °C

SMILES	ΔTm ± SD (°C)
CN(C)CCCN1C(=O)C(O)=C(C(=O)c2ccc3c(c2)OCCO3)C1c1cccc(O)c1 (stereo not drawn) [compound 16]	2.96 ± 0.36 °C
CCN(CC)CCCN1C(=O)C(O)=C(C(=O)c2ccc3c(c2)OCCO3)C1c1cccc(OC)c1 (stereo not drawn) [compound 12, 12]	4.03 ± 0.39 °C
CCN(CC)CCCN1C(=O)C(O)=C(C(=O)c2ccc3c(c2)OCCO3)C1c1ccncc1 (stereo not drawn) [compound 24]	2.75 ± 0.44 °C
O=C(C1=C(O)C(=O)N(CCCN2CCOCC2)C1c1cccc(O)c1)c1ccc2c(c1)OCCO2 (stereo not drawn) [compound 18]	2.25 ± 0.48 °C
Cc1ccc(C2C(C(=O)c3ccc4c(c3)OCCO4)=C(O)C(=O)N2CCCN(C)C)cc1 (stereo not drawn) [compound 3, 3]	2.34 ± 0.30 °C
CCN(CC)CCCN1C(=O)C(O)=C(C(=O)c2ccc3c(c2)OCCO3)C1c1cccc(O)c1 (stereo not drawn) [compound 13, 13]	4.82 ± 0.49 °C
CCN(CC)CCCN1C(=O)C(O)=C(C(=O)c2ccc(OCc3ccc(C)cc3)cc2)C1c1ccc(O)cc1 (stereo not drawn) [compound 11, 11]	0.07 ± 0.07 °C
CCN(CC)CCCN1C(=O)C(O)=C(C(=O)c2ccc3c(c2)CC(C)O3)C1c1ccc(O)cc1 (stereo not drawn) [compound 10, 10]	2.67 ± 0.46 °C
CN(C)CCCN1C(=O)C(O)=C(C(=O)c2ccc3c(c2)OCCO3)C1c1ccc(Br)cc1 (stereo not drawn) [compound 5, 5]	1.49 ± 0.16 °C
CCN(CC)CCCCN1C(=O)C(O)=C(C(=O)c2ccc3c(c2)OCCO3)C1c1ccc(O)cc1 (stereo not drawn) [S12]	1.97 ± 0.35 °C
CCN(CC)CCCN1C(=O)C(O)=C(C(=O)c2ccc(OC)c(OC)c2)C1c1cccc(O)c1 (stereo not drawn) [S11]	0.08 ± 0.40 °C
CCN(CC)CCCN1C(=O)C(O)=C(C(=O)c2ccc3ccccc3c2)C1c1ccc(O)cc1 (stereo not drawn) [S6]	-0.06 ± 0.04 °C
O=C(C1=C(O)C(=O)N(CCc2ccccc2)C1c1ccc(O)cc1)c1ccc2c(c1)OCCO2 (stereo not drawn) [compound 25]	1.80 ± 0.26 °C
CCN(CC)CCCN1C(=O)C(O)=C(C(=O)c2ccc3c(c2)OCCO3)C1c1ccc(N)cc1 (stereo not drawn) [S9]	2.78 ± 0.18 °C
COc1cccc(C2C(C(=O)c3ccc4c(c3)OCCO4)=C(O)C(=O)N2CCCNC(=N)N)c1 (stereo not drawn) [S4]	1.10 ± 0.12 °C
